Assay results reported in patent US20240270736A1, “MACROCYCLIC HETEROCYCLES AND USES THEREOF” (Kumquat Biosciences Inc., priority 2022, published 2024).

Key:
Type in all cases: binding
[1] = target: T1, KRAS G12V (Homo sapiens, UniProt P01116, G12V); assay: HTRF assay, interaction of KRAS G12V with SOS1; conditions: Ras::SOS1 interaction, read-out: Inhibition of KRAS G12V (IC50)
T1 construct: made in house; host or cells: E. coli, e.g. BL21 (DE3)
Source text: (§1) This assay can be also used to assess a selective inhibition or reduction of signaling output of a mutant Ras protein relative to a wildtype, or relative to a different mutant Ras protein. For example, the equilibrium interaction of wildtype Kras or K-Ras mutant (e.g., wildtype or a mutant thereof) with SOS1 (e.g., hSOS1) can be assessed as a proxy or an indication for a subject compound's ability to bind and inhibit Ras protein. The HTRF assay detects from (i) a fluorescence resonance energy transfer (FRET) donor (e.g., antiGST-Europium) that is bound to GST-tagged K-Ras mutant to (ii) a FRET acceptor (e.g., anti-6His-XL665) bound to a His-tagged hSOS1.
(§2) The assay buffer can contain ˜5 mM HEPES pH 7.4, ˜150 mM NaCl, ˜ 1 mM DTT, 0.05% BSA and 0.0025% (v/v) Igepal. A Ras working solution is prepared in an assay buffer containing typically a suitable amount of the protein construct (e.g., GST-tagged K-Ras mutant) and the FRET donor (e.g., antiGST-Eu(K) from Cisbio, France). A SOS1 working solution is prepared in an assay buffer containing suitable amount of the protein construct (e.g., His-hSOS1) and the FRET acceptor (e.g., anti-6His-XL665 from Cisbio, France). A suitable amount of the protein construct will depend on the range of activity or range of IC50 values being detected or under investigation. For detecting an IC50 within a range of 500 nM, the protein constructs of the same range of molarity can be utilized.
(§3) A fixed volume of DMSO with or without test compound is transferred into a 384-well plate. Ras working solution is added to all wells of the test plate. SOS1 working solution is added to all wells except for those that are subsequently filled with inhibitor control solution. Upon incubation for about 10 minutes or longer, the fluorescence is measured with a M1000Pro plate reader (Tecan) using HTRF detection (excitation 337 nm, emission 1: 620 nm, emission 2: 665 nm). Compounds are tested in duplicate at different concentrations (for example, 10 μM, 2.5 μM, 0.63 μM, 0.16 μM, 0.04 μM, 0.01 μM test compound). The ratiometric data (i.e., emission 2 divided by emission 1) is used to calculate IC50 values against Ras using GraphPad Prism (GraphPad software). Signaling output measured in terms of IC50 values can be obtained and a ratio of IC50 against one mutant relative to another mutant can be calculated. For instance, a selective reduction of K-Ras G12D signaling output can be evidenced by a ratio greater than one. In particular, a selective reduction of K-Ras G12D signaling relative to K-Ras WT signaling is evidenced if the ratio of IC50 (against K-Ras WT) to IC50 (against K-Ras G12D) is greater than 1.

[2] = target: T2, KRAS G12D (Homo sapiens, UniProt P01116, G12D); assay: HTRF assay, interaction of KRAS G12D with SOS1; conditions: Ras::SOS1 interaction, read-out: Inhibition of KRAS G12D (IC50)
T2 construct: made in house; host or cells: E. coli, e.g. BL21 (DE3)
T2 sequence (P01116 1-188 isoform P01116-2 G12D): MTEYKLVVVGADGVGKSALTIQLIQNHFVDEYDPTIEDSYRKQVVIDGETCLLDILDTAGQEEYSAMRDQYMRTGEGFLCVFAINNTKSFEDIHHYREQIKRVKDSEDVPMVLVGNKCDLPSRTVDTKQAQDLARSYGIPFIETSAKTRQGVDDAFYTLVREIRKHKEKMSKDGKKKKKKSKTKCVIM
Source text: as §1, §2, §3

[3] = target: T3, wildtype KRAS (Homo sapiens, UniProt P01116); assay: HTRF assay, interaction of wildtype KRAS with SOS1; conditions: Ras::SOS1 interaction, read-out: Inhibition of KRAS WT (IC50)
T3 construct: made in house; host or cells: E. coli, e.g. BL21 (DE3)
T3 sequence (P01116 1-188 isoform P01116-2): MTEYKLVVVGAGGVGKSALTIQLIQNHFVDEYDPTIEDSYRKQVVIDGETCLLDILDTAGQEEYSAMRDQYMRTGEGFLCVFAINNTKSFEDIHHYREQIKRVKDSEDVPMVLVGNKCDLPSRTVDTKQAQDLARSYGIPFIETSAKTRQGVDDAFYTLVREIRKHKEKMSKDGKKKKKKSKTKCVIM
Source text: as §1, §2, §3

T1 sequence (P01116 1-188 isoform P01116-2 G12V): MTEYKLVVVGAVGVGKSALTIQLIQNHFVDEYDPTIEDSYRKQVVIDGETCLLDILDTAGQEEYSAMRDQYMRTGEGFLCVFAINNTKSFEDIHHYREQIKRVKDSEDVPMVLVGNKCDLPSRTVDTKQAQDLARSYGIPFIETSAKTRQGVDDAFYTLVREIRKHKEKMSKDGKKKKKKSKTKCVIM

**Q.** For `CN1CCCCCN2CCOc3c(Cl)c(-c4ccc(F)c5sc(N)c(C#N)c45)c(F)c4nc(nc2c34)OCC2(CC2)C1` [Compound 149, 2-amino-4-(17′-chloro-19′-fluoro-7′-methyl-7′,8′,9′,10′,11′,12′,14′,15′-octahydro-4′H,6′H-spiro[cyclopropane-1,5′-[2,20](azeno)benzo[6,7][1,4]oxazepino[5,4-d][1]oxa[3,5,11]triazacyclotetradecin]-18′-yl)-7-fluorobenzo[b]thiophene-3-carbonitrile], which IC50 [1] is on record?
**A.** The IC50 was no more than 5 µM.

**Q.** What about the IC50 [2] of the same compound?
**A.** Its IC50 is no more than 5 µM.

**Q.** And the IC50 [3]?
**A.** The IC50 was no more than 5 µM.

**Q.** Which results are given for `CN(C)CC1CNC(=O)CCN2CCOc3c(Cl)c(-c4ccc(F)c5sc(N)c(C#N)c45)c(F)c4nc(nc2c34)O1` (stereo not shown) [Compound 128, 2-amino-4-(14-chloro-4-((dimethylamino)methyl)-16-fluoro-7-oxo-4,5,6,7,8,9,11,12-octahydro-2,17-(azeno)benzo[6,7][1,4]oxazepino[5,4-d][1]oxa[3,5,9]triazacycloundecin-15-yl)-7-fluorobenzo[b]thiophene-3-carbonitrile]?
**A.** IC50 [1]: ≤ 5 µM; IC50 [2]: ≤ 5 µM; IC50 [3]: ≤ 5 µM

**Q.** Which IC50 [1] does the source give for `CN(C)CC1CCCCCCN2CCOc3c(Cl)c(-c4ccc(F)c5sc(N)c(C#N)c45)c(F)c4nc(nc2c34)O1` (stereo not shown) [Compound 117, 2-amino-4-(15-chloro-4-((dimethylamino)methyl)-17-fluoro-5,6,7,8,9,10,12,13-octahydro-4H-2,18-(azeno)benzo[6,7][1,4]oxazepino[5,4-d][1]oxa[3,5]diazacyclododecin-16-yl)-7-fluorobenzo[b]thiophene-3-carbonitrile] here?
**A.** Its IC50 is no more than 5 µM.

**Q.** What about the IC50 [2] of the same compound?
**A.** The IC50 was no more than 5 µM.

**Q.** And the IC50 [3]?
**A.** Its IC50 is no more than 5 µM.

**Q.** What does the source list for `CNCCC1CC=CCCN2CCOc3c(Cl)c(-c4ccc(F)c5sc(N)c(C#N)c45)c(F)c4nc(nc2c34)O1` (stereo not shown) [Compound 130, 2-amino-4-(14-chloro-16-fluoro-4-(2-(methylamino)ethyl)-4,5,8,9,11,12-hexahydro-2,17-(azeno)benzo[6,7][1,4]oxazepino[5,4-d][1]oxa[3,5]diazacycloundecin-15-yl)-7-fluorobenzo[b]thiophene-3-carbonitrile]?
**A.** IC50 [1]: ≤ 5 µM; IC50 [2]: ≤ 5 µM; IC50 [3]: ≤ 5 µM

**Q.** Which IC50 [1] does the source give for `CN1CCCOc2nc3c4c(c(Cl)c(-c5ccc(F)c6sc(N)c(C#N)c56)c(F)c4n2)OCCN3CCC1` [Compound 143, 2-amino-4-(15-chloro-17-fluoro-7-methyl-5,6,7,8,9,10,12,13-octahydro-4H-2,18-(azeno)benzo[6,7][1,4]oxazepino[5,4-d][1]oxa[3,5,9]triazacyclododecin-16-yl)-7-fluorobenzo[b]thiophene-3-carbonitrile] here?
**A.** Its IC50 is no more than 5 µM.

**Q.** And the IC50 [2]?
**A.** The IC50 was no more than 5 µM.

**Q.** What about the IC50 [3] of the same compound?
**A.** Its IC50 is no more than 5 µM.

**Q.** How did the IC50 [1] turn out when `CN(C)[C@@H]1CNC(=O)CCN2CCOc3c(Cl)c(-c4ccc(F)c5sc(N)c(C#N)c45)c(F)c4nc(nc2c34)OC1` [Compound 104, 2-amino-4-((5R)-15-chloro-5-(dimethylamino)-17-fluoro-8-oxo-5,6,7,8,9,10,12,13-octahydro-4H-2,18-(azeno)benzo[6,7][1,4]oxazepino[5,4-d][1]oxa[3,5,9]triazacyclododecin-16-yl)-7-fluorobenzo[b]thiophene-3-carbonitrile] was run?
**A.** Its IC50 is no more than 5 µM.

**Q.** What about the IC50 [2] of the same compound?
**A.** Its IC50 is no more than 5 µM.

**Q.** And the IC50 [3]?
**A.** Its IC50 is no more than 5 µM.

**Q.** Which results are given for `CN(C)CC1CC/C=C/CCN2CCOc3c(Cl)c(-c4ccc(F)c5sc(N)c(C#N)c45)c(F)c4nc(nc2c34)O1` (stereo not shown) [Compound 101, (E)-2-amino-4-(15-chloro-4-((dimethylamino)methyl)-17-fluoro-5,6,9,10,12,13-hexahydro-4H-2,18-(azeno)benzo[6,7][1,4]oxazepino[5,4-d][1]oxa[3,5]diazacyclododecin-16-yl)-7-fluorobenzo[b]thiophene-3-carbonitrile]?
**A.** IC50 [1]: ≤ 5 µM; IC50 [2]: ≤ 5 µM; IC50 [3]: ≤ 5 µM

**Q.** What does the source list for `C[C@H]1COc2c(Cl)c(-c3ccc(F)c4sc(N)c(C#N)c34)c(F)c3nc4nc(c23)N1CCC=CCC(CN(C)C)O4` (mixture of isomers) [Compound 150, 2-amino-4-((11S)-14-chloro-4-((dimethylamino)methyl)-16-fluoro-11-methyl-4,5,8,9,11,12-hexahydro-2,17-(azeno)benzo[6,7][1,4]oxazepino[5,4-d][1]oxa[3,5]diazacycloundecin-15-yl)-7-fluorobenzo[b]thiophene-3-carbonitrile]?
**A.** IC50 [1]: ≤ 5 µM; IC50 [2]: ≤ 5 µM; IC50 [3]: ≤ 5 µM

**Q.** For `CN(C)C[C@H]1CCNC(=O)CCN2CCOc3c(Cl)c(-c4ccc(F)c5sc(N)c(C#N)c45)c(F)c4nc(nc2c34)O1` [Compound 123, 2-amino-4-((4R)-15-chloro-4-((dimethylamino)methyl)-17-fluoro-8-oxo-5,6,7,8,9,10,12,13-octahydro-4H-2,18-(azeno)benzo[6,7][1,4]oxazepino[5,4-d][1]oxa[3,5,9]triazacyclododecin-16-yl)-7-fluorobenzo[b]thiophene-3-carbonitrile], which IC50 [1] is on record?
**A.** Its IC50 is no more than 5 µM.

**Q.** And the IC50 [2]?
**A.** The IC50 was no more than 5 µM.

**Q.** And the IC50 [3]?
**A.** The IC50 was no more than 5 µM.

**Q.** Which results are given for `CN(C)CC1CCNC(=O)CN2CCOc3c(Cl)c(-c4ccc(F)c5sc(N)c(C#N)c45)c(F)c4nc(nc2c34)O1` (stereo not shown) [Compound 158, 2-amino-4-(14-chloro-4-((dimethylamino)methyl)-16-fluoro-8-oxo-4,5,6,7,8,9,11,12-octahydro-2,17-(azeno)benzo[6,7][1,4]oxazepino[5,4-d][1]oxa[3,5,8]triazacycloundecin-15-yl)-7-fluorobenzo[b]thiophene-3-carbonitrile]?
**A.** IC50 [1]: ≤ 5 µM; IC50 [2]: ≤ 5 µM; IC50 [3]: ≤ 5 µM

**Q.** For `CN(C)CCC1CC=CCCN2CCOc3c(Cl)c(-c4ccc(F)c5sc(N)c(C#N)c45)c(F)c4nc(nc2c34)O1` (single isomer, unassigned) [Compound 148, 2-amino-4-(14-chloro-4-(2-(dimethylamino)ethyl)-16-fluoro-4,5,8,9,11,12-hexahydro-2,17-(azeno)benzo[6,7][1,4]oxazepino[5,4-d][1]oxa[3,5]diazacycloundecin-15-yl)-7-fluorobenzo[b]thiophene-3-carbonitrile], which IC50 [1] is on record?
**A.** Its IC50 is no more than 5 µM.

**Q.** And the IC50 [2]?
**A.** The IC50 was no more than 5 µM.

**Q.** And the IC50 [3]?
**A.** Its IC50 is no more than 5 µM.

**Q.** For `CN(C)CC1CC=CCCN2c3nc(nc4c(F)c(-c5ccc(F)c6sc(N)c(C#N)c56)c(Cl)c(c34)OC[C@@H]2C(F)F)O1` (stereo partly drawn) [Compound 115, 2-amino-4-((11R)-14-chloro-11-(difluoromethyl)-4-((dimethylamino)methyl)-16-fluoro-4,5,8,9,11,12-hexahydro-2,17-(azeno)benzo[6,7][1,4]oxazepino[5,4-d][1]oxa[3,5]diazacycloundecin-15-y1)-7-fluorobenzo[b]thiophene-3-carbonitrile], which IC50 [1] is on record?
**A.** Its IC50 is no more than 5 µM.

**Q.** `CN(C)CC1CC=CCCN2c3nc(nc4c(F)c(-c5ccc(F)c6sc(N)c(C#N)c56)c(Cl)c(c34)OC[C@@H]2C(F)F)O1` (mixture of isomers) [Compound 107, 2-amino-4-((11R)-14-chloro-11-(difluoromethyl)-4-((dimethylamino)methyl)-16-fluoro-4,5,8,9,11,12-hexahydro-2,17-(azeno)benzo[6,7][1,4]oxazepino[5,4-d][1]oxa[3,5]diazacycloundecin-15-yl)-7-fluorobenzo[b]thiophene-3-carbonitrile] was tested. Which IC50 [2] did it give?
**A.** Its IC50 is no more than 5 µM.

**Q.** What about the IC50 [3] of the same compound?
**A.** Its IC50 is no more than 5 µM.

**Q.** For `CN1CCCCOc2nc3c4c(c(Cl)c(-c5ccc(F)c6sc(N)c(C#N)c56)c(F)c4n2)OCCN3CCCC1` [Compound 113, 2-amino-4-(17-chloro-19-fluoro-8-methyl-5,6,7,8,9,10,11,12,14,15-decahydro-4H-2,20-(azeno)benzo[6,7][1,4]oxazepino[5,4-d][1]oxa[3,5,10]triazacyclotetradecin-18-yl)-7-fluorobenzo[b]thiophene-3-carbonitrile], which IC50 [1] is on record?
**A.** Its IC50 is no more than 5 µM.
